Source: patent US20250302837A1, “INHIBITORS OF CHYMASE FOR USE IN THE SELECTIVE RESOLUTION OF THROMBI IN THROMBOTIC OR THROMBOEMBOLIC DISORDERS” (SOCPRA SCIENCES SANTÉ ET HUMAINES S.E.C., priority 2022, published 2025)

What was measured:
[1] = target: Recombinant human cathepsin G (Homo sapiens (Human), UniProt P08311); experiment: Selectivity: cathepsin G assay; format: biochemical
Description: Recombinant human cathepsin G (CathG) protein (Protein Technologies, Bayer A G) was used. […] IC50 values were calculated using an in-house software.

[2] = target: Plasmin (Homo sapiens (Human), UniProt P00747); experiment: Serine protease selectivity assay: plasmin; format: biochemical
Description: (§1) The potency of test compounds against several other human serine proteases, including coagulation proteases, in buffer was analyzed in biochemical assays based on the fluorimetric detection of aminomethylcoumarine (AMC) cleaved from specific synthetic peptidic substrates by the respective proteases.
(§2) Serine protease assays were comprised of the following enzymes and substrates (final assay concentrations are given).
(§3) Test compounds were diluted in dimethylsulfoxide (DMSO) to final assay concentrations of 0-50 μM. The respective human serine protease and the respective substrate were diluted in buffer solutions (pH 7.4) consisting of 50 mM Tris/HCl, 100 mM NaCl, 5 mM CaCl2, and 0.1% bovine serum albumin to the final concentrations given below. Diluted test compound or DMSO (1 μL) in assay buffer (20 μL), diluted serine protease solution (20 μL), and substrate solution (20 μL) were added to 384-well microtiter plates (Greiner Bio-One, Frickenhausen, Germany).

[3] = target: Plasma kallikrein (Homo sapiens (Human), UniProt P03952); experiment: Serine protease selectivity assay: plasma kallikrein; format: biochemical
Description: as §1, §2, §3

[4] = target: Thrombin (Homo sapiens (Human), UniProt P00734); experiment: Serine protease selectivity assay: thrombin; format: biochemical
Description: as §1, §2, §3

[5] = target: Trypsin (Homo sapiens, UniProt P07477); experiment: Serine protease selectivity assay: trypsin; format: biochemical
Description: as §1, §2, §3

[6] = target: Tissue plasminogen activator (Homo sapiens (Human), UniProt P00750); experiment: Serine protease selectivity assay: tPA; format: biochemical
Description: as §1, §2, §3

[7] = target: Factor Xa (Homo sapiens (Human), UniProt P00742); experiment: Serine protease selectivity assay: factor Xa; format: biochemical
Description: as §1, §2, §3

[8] = target: Factor XIa (Homo sapiens (Human), UniProt P03951); experiment: Serine protease selectivity assay: factor XIa; format: biochemical
Description: as §1, §2, §3

[9] = target: T1, human chymase (rCMA-1) (Homo sapiens (Human), UniProt P23946); experiment: Plasmin activity in the presence of human chymase; format: biochemical; settings: human plasmin + rCMA-1; fulacimstat 0.1-[…], TY-51469 0.1 or 1 μM
Description: (§4) Active murine cathepsin C was diluted to 20 μg/mL in cathepsin C buffer (50 mM MES, 50 mM NaCl, 5 mM DTT, pH 5.5). Activation was performed by adding equal volumes of recombinant chymase and cathepsin C, adding 50 μg/mL heparin and incubating 1 h at room temperature.

[10] = target: recombinant mouse mMCP-4 (rmMCP-4) (Mus musculus (Mouse), UniProt P21812); experiment: Plasmin activity in the presence of murine chymase; format: biochemical; settings: mouse plasmin + rmMCP-4; fulacimstat 0.1-[…], TY-51469 0.1 or 1 μM
Description: as §4, with “temperature. […] Plasmin activity was determined by the hydrolysis rate of 50 μM of substrate, D-Ala-Leu-Lys-7-amido-4-methylcoumarin (Sigma Aldrich, Saint-Louis, MO, USA) at 37° C. for 1 h, combined in a white 96-well microtitre plate.” for “temperature.”

[11] = target: T1, human chymase (rCMA-1); experiment: Human plasmin degradation by chymase, cleavage products by LC-MS/MS; format: biochemical; settings: FIG. 3A
Description: (§7) The reaction was stopped with an equal volume of formic acid (FA) (for a final concentration of 4% (v/v) in water) and samples were maintained on ice until protein precipitation.
Proteins from in vitro cleavage assays were first precipitated by the addition of trichloroacetic acid (TCA) to a final concentration of 10% (v/v) and incubated for 30 min at −20° C. […] Protein pellet was washed with cold 100% acetone, air dried, and re-suspended in 50 μL of a solution containing 8 M urea, 10 mM HEPES-KOH (pH 7.4). […] The proteins were digested by adding 1 g Pierce MS-grade trypsin (Thermo Fisher Scientific, Waltham, MA, USA) and incubated overnight at 30° C. Digestion was stopped by adding trifluoroacetic acid (TFA) to a final concentration of 0.2% (v/v). The peptides were purified with Pierce C18 100-μL tips column (Thermo Fisher Scientific, Waltham, MA, USA). Briefly, the C18 tip column was first moistened by suctioning 100 μL of 100% acetonitrile (ACN) three times, then equilibrated by suctioning 100 μL of 0.1% (v/v) TFA buffer 3 times. Each peptide sample was passed on the balanced C18 tip column by 10 succeeding up-and-downs of 100 μL of the sample. This step was performed twice in order to administer the entire sample on the column. The C18 tip column was then washed with 100 μL of 0.1% (v/v) TFA buffer 3 times. […] This step was carried out 3 times to obtain a final volume of 300 μL. […]

[12] = target: Mouse chymase (rmMCP-4) (Mus musculus (Mouse), UniProt P21812); experiment: Mouse plasmin degradation by chymase, cleavage products by LC-MS/MS; format: biochemical; settings: FIG. 3B
Description: as §7
Proteins from in vitro cleavage assays were first precipitated by the addition of trichloroacetic acid (TCA) to a final concentration of 10% (v/v) and incubated for 30 min at −20° C. […] Protein pellet was washed with cold 100% acetone, air dried, and re-suspended in 50 μL of a solution containing 8 M urea, 10 mM HEPES-KOH (pH 7.4). The protein reduction step was carried out by adding DTT (Thermo Fisher Scientific, Waltham, MA, USA) to a final concentration of 5 mM and boil at 95° C. for 2 min, then incubated at room temperature for 30 min. […] Urea concentration was decreased to 2 M by the addition of 150 μL of 50 mM ammonium bicarbonate (NH4HCO3). The proteins were digested by adding 1 g Pierce MS-grade trypsin (Thermo Fisher Scientific, Waltham, MA, USA) and incubated overnight at 30° C. Digestion was stopped by adding trifluoroacetic acid (TFA) to a final concentration of 0.2% (v/v). The peptides were purified with Pierce C18 100-μL tips column (Thermo Fisher Scientific, Waltham, MA, USA). Briefly, the C18 tip column was first moistened by suctioning 100 μL of 100% acetonitrile (ACN) three times, then equilibrated by suctioning 100 μL of 0.1% (v/v) TFA buffer 3 times. […]

[13] = system: mouse venous stenosis (DVT) model; experiment: Venous stenosis model in mouse (IVC), thrombus measurement; format: in vivo
Description: By doing this, we ensure that the endothelium is not denuded and that a residual flow of 10% in the IVC still remains. The guts were subsequently moved back in their original location in the abdomen and the abdominal cavity was closed in layers with a braided 5.0 absorbable suture. […] The IVCs were dissected post-euthanasia, and thrombi isolated, measured, weighed, and finally stored at −80° C.
(§5) The stenosis was evaluated 24- or 48-hours post-ligation. The IVCs were dissected, and thrombi were isolated, measured, and weighted.
as §5

[14] = system: mouse venous stenosis model; experiment: Blood flow (Doppler ultrasound) in venous stenosis model in mice; format: in vivo
Excerpt: The main goal in thrombosis is to ensure sufficient blood flow for an appropriate maintenance of the tissue surrounding the vessel. […] Mice were anesthetized during the procedure (2% isoflurane; 4% oxygen) and their abdomens were shaved and covered with ultrasound gel.

[15] = system: mouse FeCl3-induced injury thrombosis model; experiment: Ferric chloride-induced injury at the inferior vena cava in mouse; format: in vivo; settings: mouse IVC FeCl3 injury; 10 mg/kg TY-51469 intraperitoneal 1 h prior to anesthesia
Description: A laparotomy was performed, and the guts were gently displaced without injury from the abdominal cavity and conserved in 0.9% NaCl solution (37° C.). The IVC was exposed by separation of the vessel between the renal and iliolumbar veins. […] The guts were subsequently moved back in their original location in the abdomen. Mice were sacrificed 30 min later to access the thrombotic area in the IVC. IVCs were dissected and thrombi were isolated and weighted with an analytical balance (0.1 mg accuracy, Entris II, Sartorius).

[16] = system: chymase in mouse thrombus extracts; experiment: Intra-thrombus chymase enzymatic activity ex vivo, mouse thrombi; format: biochemical; settings: thrombus from venous stenosis in mouse, +10 μM TY-51469
Description: (§6) Plasmin activity was determined by the hydrolysis rate of 50 μM of substrate, D-Ala-Leu-Lys-7-amido-4-methylcoumarin (Sigma Aldrich, Saint-Louis, MO, USA) at 37° C. for 1 h. Chymase activity was determined by the hydrolysis rate of 10 μM of substrate, Suc-Leu-Leu-Val-Tyr-7-amido-4-methylcoumarin (Peptide Institute Inc., Osaka, Japan) at 37° C. for 1 h. The fluorescence released was measured with an Infinite M1000 spectrophotometer (Tecan Group Ltd., Mannerdorf, Switzerland) with λex=370 nm and λem=460 nm.

[17] = target: plasmin in mouse thrombus extracts (Mus musculus (Mouse), UniProt P20918); experiment: Intra-thrombus plasmin enzymatic activity ex vivo, mouse thrombi; format: biochemical; settings: thrombus from venous stenosis in mouse, +10 μM TY-51469
Description: as §6

[18] = system: mouse tail bleeding model; experiment: Tail bleeding time in mouse; format: in vivo
Description: The tail was cut 3 mm starting from the extremity. The time at which the bleeding stopped was noted. After 30 min, all animals were euthanized.

[19] = target: recombinant human chymase (Homo sapiens (Human), UniProt P23946); experiment: Enzymatic chymase activity assay (human)
[20] = target: recombinant hamster chymase; experiment: Enzymatic chymase activity assay (hamster)
[21] = oral intake; cited from earlier work
[22] = target: plasminogen/plasmin (Homo sapiens (Human), UniProt P00747); experiment: Halo assay: tPA-induced fibrinolysis of human blood halos, plasmin inhibitor control; settings: 0.1 μM or 1 μM co-administered with tPA, pre-formed halo
[23] = cited from earlier work
[24] = TY-51469 0.1 mg/kg i.p. 1 h after initiation of stenosis, observation 24 h
[25] = TY-51469 1 mg/kg i.p. 1 h after initiation of stenosis, observation 24 h
[26] = TY-51469 10 mg/kg i.p. 1 h after initiation of stenosis, observation 24 h
[27] = TY-51469 10 mg/kg i.p. 24 h after initiation of stenosis, observation 48 h
[28] = 10 mg/kg TY-51469 i.p. 1 h after start of stenosis, 6 h post-ligation
[29] = 10 mg/kg TY-51469 i.p. 1 h after start of stenosis, 24 h post-ligation
[30] = TY-51469 group, non-ligated (pre-ligation baseline)

Compound: Cc1c(S(=O)(=O)Nc2ccc(-c3nc(C(=O)O)cs3)cc2S(C)(=O)=O)sc2ccc(F)cc12 [TY-51469, 2-(4-((5-fluoro-3-methylbenzo-[b]thiophene)-2-sulfonamido)-3-(methylsulfonyl)phenyl)thiazole-4-carboxylic acid]
- IC50 ([1]; Cathepsin G): 1300 nM
- less potency on cathepsin G than chymase ([1]; cathepsin G vs chymase): 60 fold
- IC50 [2]: > 2000 nM
- IC50 [3]: > 2000 nM
- IC50 [4]: > 2000 nM
- IC50 [5]: > 2000 nM
- IC50 [6]: > 2000 nM
- IC50 [7]: > 2000 nM
- IC50 [8]: > 2000 nM
- plasmin activity (fluorescence generation) in presence of chymase [9]: increased again concentration-dependently
- plasmin activity (fluorescence generation) in presence of chymase [10]: increased again concentration-dependently
- degradation of plasmin by chymase [11]: prevented
- degradation of plasmin by chymase [12]: prevented
- Thrombus length [13, 24]: 3.79 mm
- Thrombus weight [13, 24]: 8.19 mg
- Thrombus length [13, 25]: 1.79 mm
- Thrombus weight [13, 25]: 4.04 mg
- Thrombus length [13, 26]: 0.22 mm
- Thrombus weight [13, 26]: 0.47 mg
- Thrombus length [13, 27]: 1.0 mm
- Thrombus weight [13, 27]: 1.29 mg
- Abdominal aorta velocity [14, 28]: 487.6 ± 33.1 mm/s
- Inferior vena cava velocity [14, 28]: 171.6 ± 27.1 mm/s
- Abdominal aorta velocity [14, 29]: 505.8 ± 40.4 mm/s
- Inferior vena cava velocity [14, 29]: 158.5 ± 18.3 mm/s
- Abdominal aorta velocity [14, 30]: 508.2 ± 29.7 mm/s
- Inferior vena cava velocity [14, 30]: 124.6 ± 28.7 mm/s
- Thrombus weight [15]: 1.31 mg
- Chymase activity [16]: 0.33 ± 0.25 nM AMC
- Plasmin activity [17]: 13.16 ± 1.26 nM AMC
- impact on bleeding time (in words) ([18]; mouse tail bleeding model): no impact on the bleeding time
- Bleeding time prolongation ([18]; mouse tail bleeding, TY-51469 10 mg/kg): 1.0 xfold of Ctr
- Bleeding time ([18]; mouse tail bleeding, TY-51469 10 mg/kg IP 1 h prior): 4.08 min
- IC50 [19]: 20 nM
- IC50 [20]: 66 nM

Compound: Cn1c(=O)oc2cc(-n3cc(C(=O)O)c(=O)n([C@@H]4CCc5c4cccc5C(F)(F)F)c3=O)ccc21 [fulacimstat, 1-(3-methyl-2-oxo-2,3-dihydro-1,3-benzoxazol-6-yl)-2,4-dioxo-3-[(1R)-4-(trifluoromethyl)-2,3-dihydro-1H-inden-1-yl]-1,2,3,4-tetrahydropyrimidine-5-carboxylic acid]
- plasmin activity (fluorescence generation) in presence of chymase [10]: increased again concentration-dependently
- degradation of plasmin by chymase [12]: prevented
- oral bioavailability [21]: bioavailable after oral intake

Compound: Cl.O=c1cc(C2CCNCC2)n2nc3cccc(Cl)c3c2[nH]1 [Example 3 in WO2015067549]
- tPA-induced fibrinolysis of human blood halos [22]: very significantly reduced

Compound: tPA: Recombinant tissue-type plasminogen activator (rtPA, alteplase), the most widely used fibrinolytic drug
- dominant half-life in human plasma [23]: < 5 min
